# Laboratory results from patent US5665760A, “Lyophilized thioxanthenone antitumor agents” (priority 1995, dated 1997).
# Tests used:
# Assay type in all cases: in vivo
# [1] = tested on: pancreatic ductal adenocarcinoma #03; assay: antitumor activity in mice against pancreatic ductal adenocarcinoma #03 (Panc 03); conditions: for Weight Loss / Drug Deaths: Table 1, total doses as in E1; for Weight Loss: average body weight 25 g
# Description: (§1) Representative examples of the invention were tested for antitumor activity in mice according to the following procedure:
# (§2) The animals were pooled, implanted subcutaneously with 30 to 60 mg tumor fragments by 12-gauge trocar, and again pooled before unselective distribution to the various treatment and control groups. For early-stage treatment, chemotherapy was started within 1 to 5 days after tumor implantation while the number of cells was relatively small (10^7 to 10^8 cells). For advanced-stage treatment, chemotherapy was delayed until the tumor became relatively large (200 to 300 mg in size). A 300-mg tumor contains approximately 3×10^8 total cells. […] Tumors were measured with a caliper weekly (or twice weekly for the more rapidly growing tumors). Mice were sacrificed when their tumors reached 1500 mg (i.e., before they can cause the animal discomfort). Tumor weights were estimated from two-dimensional measurements.
# (§3) The treatment and control groups were measured when the control group tumors reached approximately 700 to 1200 mg in size (Median of Group). The median tumor weight of each group was determined (including zeros). […] A T/C value <10% is considered to indicate highly significant antitumor activity.
# (§4) The results are shown in Table I for pancreatic ductal adenocarcinoma #03 and in Table 2 for colon adenocarcinoma #38.
# [2] = tested on: colon adenocarcinoma #38; assay: antitumor activity in mice against colon adenocarcinoma #38
# Description: as §1, §2, §3, §4
# [3] = tested on: Human Adeno Squamous Lung #125; assay: antitumor activity in mice against Human Adeno Squamous Lung #125; conditions: 16 hr infusion days 7, 20
# [4] = tested on: Mammary 16/C; assay: antitumor activity in mice against Mammary 16/C
# Description: as §1, §2, §3
# [5] = tested on: Mammary 16/C/Adr; assay: antitumor activity in mice against Mammary 16/C/Adr (adriamycin resistant); conditions: 960 mg/kg total, 3 hr infusion days 1, 4
# Description: as §1
# (§5) The animals were pooled, implanted subcutaneously with 30 to 60 mg tumor fragments by 12-gauge trocar, and again pooled before unselective distribution to the various treatment and control groups. For early-stage treatment, chemotherapy was started within 1 to 5 days after tumor implantation while the number of cells was relatively small (10^7 to 10^8 cells). For advanced-stage treatment, chemotherapy was delayed until the tumor became relatively large (200 to 300 mg in size). A 300-mg tumor contains approximately 3×10^8 total cells. Tumors within a given advanced-stage trial were within a 2.5-fold size range for 90% of the animals. Tumors were measured with a caliper weekly (or twice weekly for the more rapidly growing tumors). Mice were sacrificed when their tumors reached 1500 mg (i.e., before they can cause the animal discomfort). Tumor weights were estimated from two-dimensional measurements.
# (§6) The treatment and control groups were measured when the control group tumors reached approximately 700 to 1200 mg in size (Median of Group). The median tumor weight of each group was determined (including zeros). The T/C value (weight of treated tumors over the weight of control tumors) in percent is an indication of antitumor effectiveness: A T/C equal to or less than 42% is considered significant antitumor activity by the Drug Evaluation Branch of the Division of Cancer Treatment (NCl). A T/C value <10% is considered to indicate highly significant antitumor activity. A body weight loss nadir (mean of group) of greater than 20% or greater than 20% drug-deaths is considered to indicate an excessively toxic dosage.
# [6] = tested on: Colon #51; assay: antitumor activity in mice against Colon #51; conditions: 3 hr infusion days 3, 7; for Tumor Free: 50 days of observation
# Description: as §1, §5, §6
# [7] = tested on: Colon 51/A; assay: antitumor activity in mice against Colon 51/A; conditions: i.v. bolus days 3-6, 9, 11
# Description: as §1, §2, §3
# [8] = tested on: Panc 02; assay: antitumor activity in mice against Panc 02; conditions: i.v. bolus days 1-4; for Tumor Free: 28 days of observation
# Description: as §1, §5, §6
# [9] = 600 mg/kg total, 4 hr infusion days 6, 13
# [10] = 960 mg/kg total, 4 hr infusion days 6, 13
# [11] = Table 2, i.v., total dose mg/kg by Example: 2:600, 5:960, 6:132, 7:840, 16(a):1000, 18(e):180
# [12] = 454 mg/kg total, 4 hr infusion days 1, 4
# [13] = 720 mg/kg total, 4 hr infusion days 1, 4
# [14] = 79 mg/kg total, i.v. bolus days 3-4, 6-14
# [15] = 124 mg/kg total, i.v. bolus days 3-4, 6-14
# [16] = 51 mg/kg total, i.v. bolus days 6-9
# [17] = 82 mg/kg total, i.v. bolus days 6-9
# [18] = Table 2, i.v., total dose mg/kg by Example: 6:82, 16(a):690, 18(e):120
# [19] = 51 mg/kg total, i.v. bolus days 1-4
# [20] = 82 mg/kg total, i.v. bolus days 1-4
smiles,measurement,setting,value
"CCN(CC)CCNc1ccc(CNC)c2sc3ccccc3c(=O)c12 [Example 5, 1-[[2-(Diethylamino)ethyl]amino]-4-[(methylamino)-methyl]thioxanthen-9-one]",T/C,[1],0%
same,T/C Value,"[1]; 222 mg/kg total, 3 hr infusion",0%
same,Wt. Loss at Nadir,"[1]; 222 mg/kg total, 3 hr infusion",-1.6 g/mouse
same,Tumor Free,"[1]; 222 mg/kg total, 3 hr infusion, 108 days of observation",1/4
same,Weight Loss,[1],1.6 g
same,Drug Deaths,[1],0
same,activity against colon adenocarcinoma #38,[2]; 300 mg/kg p.o.,active
same,T/C Value,"[2]; 477 mg/kg total, 3-15 bolus",9%
same,Wt. Loss at Nadir,"[2]; 477 mg/kg total, 3-15 bolus",-2.8 g/mouse
same,Tumor Free,"[2]; 477 mg/kg total, 3-15 bolus, 100 days of observation",0/5
same,T/C Value,[2]; [9],26%
same,Wt. Loss at Nadir,[2]; [9],-2.0 g/mouse
same,Tumor Free,"[2]; 600 mg/kg total, 4 hr infusion days 6, 13, 20 days of observation",0/7
same,Tumor Free,"[2]; 600 mg/kg total, 4 hr infusion days 6, 13, 100 days of observation",0/7
same,T/C Value,"[2]; 732 mg/kg total, 3-15 bolus",0%
same,Wt. Loss at Nadir,"[2]; 732 mg/kg total, 3-15 bolus",-2.0 g/mouse
same,Tumor Free,"[2]; 732 mg/kg total, 3-15 bolus, 100 days of observation",1/5
same,T/C Value,[2]; [10],11%
same,Wt. Loss at Nadir,[2]; [10],-2.9 g/mouse
same,Tumor Free,"[2]; 960 mg/kg total, 4 hr infusion days 6, 13, 20 days of observation",2/7
same,Tumor Free,"[2]; 960 mg/kg total, 4 hr infusion days 6, 13, 100 days of observation",1/7
same,Drug Deaths,[2]; [11],0
same,T/C,[2]; iv,11%
same,Weight Loss,"[2]; mouse, in vivo, iv",2.9 g
same,T/C Value,[3]; 600 mg/kg total,15%
same,Wt. Loss at Nadir,[3]; 600 mg/kg total,-0.4 g/mouse
same,Tumor Free,"[3]; 600 mg/kg total, 33 days of observation",0/5
same,Tumor Free,"[3]; 600 mg/kg total, 132 days of observation",0/5
same,T/C Value,[3]; 960 mg/kg total,16%
same,Wt. Loss at Nadir,[3]; 960 mg/kg total,-0.4 g/mouse
same,Tumor Free,"[3]; 960 mg/kg total, 33 days of observation",1/4
same,Tumor Free,"[3]; 960 mg/kg total, 132 days of observation",0/4
same,T/C Value,[4]; [12],16%
same,Wt. Loss at Nadir,[4]; [12],-1.2 g/mouse
same,Tumor Free,"[4]; 454 mg/kg total, 4 hr infusion days 1, 4, 13 days of observation",0/7
same,T/C Value,[4]; [13],18%
same,Wt. Loss at Nadir,[4]; [13],-2.0 g/mouse
same,Tumor Free,"[4]; 720 mg/kg total, 4 hr infusion days 1, 4, 13 days of observation",0/7
same,T/C Value,[5],23%
same,Wt. Loss at Nadir,[5],-2.8 g/mouse
same,T/C Value,[6]; 454 mg/kg total,12%
same,Wt. Loss at Nadir,[6]; 454 mg/kg total,-2.8 g/mouse
same,Tumor Free,[6]; 454 mg/kg total,0/7
same,T/C Value,[6]; 720 mg/kg total,8%
same,Wt. Loss at Nadir,[6]; 720 mg/kg total,-1.1 g/mouse
same,Tumor Free,[6]; 720 mg/kg total,0/5
"CCN(CC)CCNc1ccc(CNS(C)(=O)=O)c2sc3ccccc3c(=O)c12 [Example 6, N-[[1-[[2-(Diethylamino)ethyl]amino]-9-oxothioxanthen4-yl]methyl]methanesulfonamide]",T/C Value,[1]; [14],0%
same,Wt. Loss at Nadir,[1]; [14],-1.0 g/mouse
same,Tumor Free,"[1]; 79 mg/kg total, i.v. bolus days 3-4, 6-14, 245 days of observation",1/5
same,T/C Value,[1]; [15],0%
same,Wt. Loss at Nadir,[1]; [15],-1.6 g/mouse
same,Tumor Free,"[1]; 124 mg/kg total, i.v. bolus days 3-4, 6-14, 245 days of observation",3/5
same,Weight Loss,[1],1.6 g
same,Drug Deaths,[1],0
same,T/C Value,[2]; [16],18%
same,Wt. Loss at Nadir,[2]; [16],-1.2 g/mouse
same,T/C Value,[2]; [17],1%
same,Wt. Loss at Nadir,[2]; [17],-1.7 g/mouse
same,Drug Deaths,[2]; [11],3/7
same,Drug Deaths,[2]; [18],1/7
same,Weight Loss,[2]; [18],1.7 g
same,Weight Loss,"[2]; mouse, in vivo, iv",5.0 g
same,T/C Value,[4]; [19],13%
same,Wt. Loss at Nadir,[4]; [19],-1.2 g/mouse
same,Tumor Free,"[4]; 51 mg/kg total, i.v. bolus days 1-4, 23 days of observation",0/5
same,T/C Value,[4]; [20],6%
same,Wt. Loss at Nadir,[4]; [20],-3.0 g/mouse
same,Tumor Free,"[4]; 82 mg/kg total, i.v. bolus days 1-4, 23 days of observation",0/5
same,T/C Value,[7]; 66 mg/kg total,28%
same,Wt. Loss at Nadir,[7]; 66 mg/kg total,-2.3 g/mouse
same,T/C Value,[7]; 96 mg/kg total,14%
same,Wt. Loss at Nadir,[7]; 96 mg/kg total,-3.0 g/mouse
same,T/C Value,[8]; 51 mg/kg total,42%
same,Wt. Loss at Nadir,[8]; 51 mg/kg total,-1.2 g/mouse
same,Tumor Free,[8]; 51 mg/kg total,0/5
same,T/C Value,[8]; 82 mg/kg total,23%
same,Wt. Loss at Nadir,[8]; 82 mg/kg total,-2.0 g/mouse
same,Tumor Free,[8]; 82 mg/kg total,0/5
